Ki data for twelve compounds are collected here from US8901313B2, “6,5-heterocyclic propargylic alcohol compounds and uses therefor” (Genentech, Inc., priority 2011, dated 2014).

In the test the target is T1, nuclear factor-kappa B (NF-kB)-inducing kinase (NIK) (Homo sapiens, UniProt Q99558).
T1 construct: made in house; host or cells: baculovirus-infected insect cells
T1 sequence (Q99558 whole entry): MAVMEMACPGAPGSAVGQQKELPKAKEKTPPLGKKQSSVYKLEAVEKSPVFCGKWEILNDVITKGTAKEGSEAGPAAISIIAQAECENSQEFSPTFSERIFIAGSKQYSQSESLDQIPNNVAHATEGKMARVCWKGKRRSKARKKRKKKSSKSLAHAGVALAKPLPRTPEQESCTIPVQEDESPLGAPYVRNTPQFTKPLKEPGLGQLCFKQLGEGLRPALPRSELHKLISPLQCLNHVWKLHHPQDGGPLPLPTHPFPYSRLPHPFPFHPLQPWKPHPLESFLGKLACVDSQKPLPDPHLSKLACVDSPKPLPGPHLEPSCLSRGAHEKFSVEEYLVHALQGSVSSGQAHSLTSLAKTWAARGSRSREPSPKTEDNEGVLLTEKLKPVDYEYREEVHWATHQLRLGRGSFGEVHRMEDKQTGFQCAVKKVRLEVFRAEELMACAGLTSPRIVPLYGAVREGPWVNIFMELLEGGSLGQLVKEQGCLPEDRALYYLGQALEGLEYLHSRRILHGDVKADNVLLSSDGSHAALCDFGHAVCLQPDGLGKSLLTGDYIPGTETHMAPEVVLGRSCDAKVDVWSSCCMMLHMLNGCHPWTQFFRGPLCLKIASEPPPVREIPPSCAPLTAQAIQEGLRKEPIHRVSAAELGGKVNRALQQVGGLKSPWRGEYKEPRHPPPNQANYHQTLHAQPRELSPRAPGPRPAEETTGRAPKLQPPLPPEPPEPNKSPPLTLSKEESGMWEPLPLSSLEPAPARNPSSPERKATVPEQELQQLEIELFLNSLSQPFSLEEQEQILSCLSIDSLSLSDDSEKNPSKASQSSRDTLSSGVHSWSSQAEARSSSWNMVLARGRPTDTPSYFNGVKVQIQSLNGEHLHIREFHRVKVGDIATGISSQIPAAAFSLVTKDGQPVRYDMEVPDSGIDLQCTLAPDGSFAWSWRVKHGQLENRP
Description: NIK Enzyme Inhibition Assay (Transcreener ADP assay). The class given is biochemical. The settings on record: purified NIK 0.2-1 nM, 10 uM ATP, fluorescence polarization, Morrison's quadratic equation; read-out: inhibitory value (Ki) for NIK. A general note: In fluorescence polarisation assays a small probe gives low polarisation when free and higher when bound to something large.
With `Cc1cc([C@](C)(O)C#Cc2ccc3nc(OC4COC4)n(-c4ccnc(N)n4)c3c2)no1` [Example T1.1-25, (2R)-4-[3-(2-aminopyrimidin-4-yl)-2-(oxetan-3-yloxy)benzimidazol-5-yl]-2-(5-methylisoxazol-3-yl) but-3-yn-2-ol], the Ki came to 1 nM.
For `CN(C)C(=O)c1nn(-c2ccnc(N)n2)c2cc(C#CC(C)(O)c3cc(CO)on3)ccc12` (stereo not drawn) [Example T1.1-26, 1-(2-aminopyrimidin-4-yl)-6-[3-hydroxy-3-[5-(hydroxymethyl)isoxazol-3-yl]but-1-ynyl]-N,N-dimethyl-indazole-3-carboxamide] the value was 1 nM.
For `Cc1cc(C(C)(O)C#Cc2ccc3nc(OCCO)n(-c4ccnc(N)n4)c3c2)no1` (stereo not drawn) [Example T1.1-27, 4-[3-(2-aminopyrimidin-4-yl)-2-(2-hydroxyethoxy)benzimidazol-5-yl]-2-(5-methylisoxazol-3-yl)but-3-yn-2-ol] the value was 2 nM.
With `CCOc1nc2ccc(C#CC3(O)CCn4ccnc43)cc2n1-c1ccnc(N)n1` (stereo not drawn) [Example T1.1-28, 7-[2-[3-(2-aminopyrimidin-4-yl)-2-ethoxy-benzimidazol-5-yl]ethynyl]-5,6-dihydropyrrolo[1,2-a]imidazol-7-ol] the figure was 2 nM.
For the compound `Cc1cc(C(C)(O)C#Cc2ccc3nc(OCC(F)(F)F)n(-c4ccnc(N)n4)c3c2)no1` (stereo not drawn) [Example T1.1-29, 4-[3-(2-aminopyrimidin-4-yl)-2-(2,2,2-trifluoroethoxy)benzimidazol-5-yl]-2-(5-methylisoxazol-3-yl) but-3-yn-2-ol], the Ki was 2 nM.
For `Cc1nc(C(C)(O)C#Cc2ccc3c(C(=O)N(C)C)nn(-c4ccnc(N)n4)c3c2)no1` (stereo not drawn) [Example T1.1-30, 1-(2-aminopyrimidin-4-yl)-6-[3-hydroxy-3-(5-methyl-1,2,4-oxadiazol-3-yl)but-1-ynyl]-N,N-dimethyl-indazole-3-carboxamide] the value was 2 nM; for `Cc1nc([C@](C)(O)C#Cc2ccc3c(c2)n(-c2ccnc(N)n2)c(=O)n3C)no1` [Example T1.1-31, 3-(2-aminopyrimidin-4-yl)-5-[(3R)-3-hydroxy-3-(5-methyl-1,2,4-oxadiazol-3-yl)but-1-ynyl]-1-methyl-benzimidazol-2-one], 2 nM.
Consider `Cc1cc(C(C)(O)C#Cc2ccc3c(c2)n(-c2ccnc(N)n2)c(=O)n3CC2CC2)no1` (stereo not drawn) [Example T1.1-32, 3-(2-aminopyrimidin-4-yl)-1-(cyclopropylmethyl)-5-[3-hydroxy-3-(5-methylisoxazol-3-yl)but-1-ynyl] benzimidazol-2-one], for which the Ki was 2 nM.
As for `Cc1nn(-c2ccnc(N)n2)c2cc(C#CC(C)(O)c3cc(CO)on3)ccc12` (stereo not drawn) [Example T1.1-33, 4-[1-(2-aminopyrimidin-4-yl)-3-methyl-indazol-6-yl]-2-[5-(hydroxy-methyl)isoxazol-3-yl]but-3-yn-2-ol], the inhibition constant (Ki) came out at 2 nM.
For `Cc1nc([C@](C)(O)C#Cc2ccc3c(C(=O)N4CC(O)C4)nn(-c4ccnc(N)n4)c3c2)no1` [Example T1.1-34, [1-(2-aminopyrimidin-4-yl)-6-[(3R)-3-hydroxy-3-(5-methyl-1,2,4-oxadiazol-3-yl)but-1-ynyl]indazol-3-yl]-(3-hydroxyazetidin-1-yl)methanone] the value was 2 nM.
For `Cc1nc([C@](C)(O)C#Cc2ccc3c(C(C)(C)F)nn(-c4ccnc(N)n4)c3c2)no1` [Example T1.1-35, (2R)-4-[1-(2-aminopyrimidin-4-yl)-3-(1-fluoro-1-methyl-ethyl)indazol-6-yl]-2-(5-methyl-1,2,4-oxadiazol-3-yl) but-3-yn-2-ol] the value was 2 nM.
With `Cc1nc(C(C)(O)C#Cc2ccc3c(CC(C)(O)C(F)F)nn(-c4ccnc(N)n4)c3c2)no1` (stereo not drawn) [Example T1.1-36, 3-[1-(2-aminopyrimidin-4-yl)-6-[3-hydroxy-3-(5-methyl-1,2,4-oxadiazol-3-yl)but-1-ynyl]indazol-3-yl]-1,1-difluoro-2-methyl-propan-2-ol] the figure was 2 nM.

By Ki is commonly meant a dissociation constant, usually derived from enzyme kinetics or from competition with a known ligand.
